Test results published in patent EP0998924A1, “ANTITUMOR AGENTS” (MEIJI MILK PRODUCTS COMPANY LIMITED, priority 1997, dated 1999).

System: topoisomerase II
Experiment: Measurement of topoisomerase II inhibitory activity (kDNA decatenation, agarose gel electrophoresis and densitometry)
Format: biochemical, rat
Protocol: Test Example 1 Measurement of Topoisomerase II Inhibitory Activity
(A) Extraction of crude topoisomerase II from rat infant brain nuclei (IBN)
IBN (11.98 mg/ml in 50% glycerol) (4.2 µl) was fractionated and subjected to centrifugation (3,000 × g, one minute), to thereby remove glycerol. The thus-obtained pellet was suspended in a nuclear extraction buffer (20 mM Tris-HCl (pH 7.5), 0.3 M NaCl, 140 mM β-Me, […], 20 mM PMSF) (10 µl), and the suspension was incubated in ice for 30 minutes. Subsequently, the suspension was subjected to centrifugation (10,000 × g, 10 minutes) and supernatant was fractionated, to thereby obtain crude topoisomerase II. The thus-obtained topoisomerase II was diluted on the basis of activity.
(B) Dilution of purified topoisomerase II (Top GEN, Inc)
Topoisomerase II (Top GEN, Inc) was diluted with the aforementioned nuclear extraction buffer, so as to attain a concentration of 0.75 unit/ml.
A test sample (1 µl) and a buffer (18 µl) containing a mixture of required amounts of Milli Q, 4 × topoisomerase II buffer (250 mM Tris-HCl (pH 7.9), 600 mM KCl, 50 mM MgCl2, 0.5 mM EDTA, 2.5 mM ATP, 150 mg/ml BSA), and k DNA (312 ng/ml) were added to an Eppendorf tube, and the resultant mixture was vortexed and lightly centrifuged. Subsequently, diluted crude topoisomerase II or diluted purified topoisomerase (1 µl) was added to the mixture, and the mixture was vortexed and lightly centrifuged. (Meanwhile, instead of such topoisomerase II, Milli Q (1 µl) and 50% DMSO (1 µl) were added to a reaction system prepared as a control, which system contains neither enzyme nor xanthone derivative, and 50% DMSO (1 µl) was added to a reaction system containing no xanthone derivative.)
The Eppendorf tube containing crude topoisomerase II and the Eppendorf tube containing purified topoisomerase II were allowed to stand for 30 minutes at 30°C and 37°C, respectively. Subsequently, SDS/PK/BJ (4 µl) was added to both of the tubes in ice, and both were allowed to stand at 50°C for five minutes, vortexed, and lightly centrifuged. After being allowed to stand again at 50°C for 30 minutes, they were vortexed and lightly centrifuged.
(C) Agarose gel electrophoresis and densitometry
The above-treated mixture was subjected to agarose gel electrophoresis (-EtBr 50 V) by use of a 1 × TBE buffer for electrophoresis (89 mM Tris Base/89 mM boric acid/2 mM EDTA2Na). After electrophoresis, gel staining was performed by use of 1 × TBE ([…]). After being decolorized, the gel was irradiated with UV rays, and bands on the gel were observed. The concentration of the agarose gel was 0.8%.
The amount of reacted enzyme was quantified by transforming the depth of color of the bands on the gel into numerical values by use of a computer (Gel Plotting Macros installed in NIH Image). Data of bands of mini-circle DNA were processed by a computer for conversion into numerical values and calculation, to thereby obtain residual activity (%).

[1] = test sample concentration 100 µg/ml
[2] = test sample concentration 500 µg/ml
[3] = test sample concentration 0.5 µg/ml
[4] = test sample concentration 1 µg/ml
[5] = test sample concentration 50 µg/ml
[6] = test sample concentration 10 µg/ml

For `Oc1ccc(C=CC=Cc2ccc(O)cc2)cc1` [4,4-(1,3-Butadiene-1,4-diyl)bis-phenol, 4,4-(1,3-butadiene-1,4-diyl)bis-phenol], the “Residual activity (%)” value [1] was 28% and the “Residual activity (%)” value [2] was 0%.
For `Oc1ccc([C@H]2c3c(O)cc4c5c3[C@@H]([C@@H](c3ccc(O)cc3)c3c(O)cc(O)cc3[C@@H]5[C@@H](c3ccc(O)cc3)O4)[C@@H]2c2cc(O)cc(O)c2)cc1` [Davidiol A, davidiol A], the “Residual activity (%)” value [1] was 3% and the “Residual activity (%)” value [2] was 2%.
For `Oc1ccc([C@H]2Oc3cc(O)cc4c3[C@@H]2c2cc(O)cc3c2[C@@H](c2cc(O)cc5c2[C@@H]4[C@H](c2ccc(O)cc2)O5)[C@H](c2ccc(O)cc2)O3)cc1` [α-Viniferin, α-viniferin], the “Residual activity (%)” value [3] was 41%, the “Residual activity (%)” value [4] was 38% and the “Residual activity (%)” value [5] was 0%.
hopeaphenol was tested, and the “Residual activity (%)” value [1] was 4% and the “Residual activity (%)” value [2] was 1%.
For kobophenol A, the “Residual activity (%)” value [3] was 68%, the “Residual activity (%)” value [6] was 59% and the “Residual activity (%)” value [5] was 18%.
leachianol A was tested, and the “Residual activity (%)” value [1] was 1% and the “Residual activity (%)” value [2] was 2%.
leachianol B was tested, and the “Residual activity (%)” value [1] was 1% and the “Residual activity (%)” value [2] was 1%.
miyabenol A was tested, and the “Residual activity (%)” value [3] was 32%, the “Residual activity (%)” value [4] was 13% and the “Residual activity (%)” value [6] was 0%.
In the case of miyabenol C, the “Residual activity (%)” value [3] is reported as 57%, the “Residual activity (%)” value (test sample concentration 2 µg/ml) is reported as 42% and the “Residual activity (%)” value [6] is reported as 0%.
